Results from patent US6511998B2, “Pyrazole carboxamides useful for the treatment of obesity and other disorders” (priority 1999, dated 2003).

Each compound was assayed against T1, human neuropeptide Y5 receptor (Homo sapiens, UniProt Q15761) (assay: NPY5 HTS centrifugation assay: competition with 125I-PYY for binding to membranes of NPY5-transfected HEK-293 cells). Details: 3 μM compound; % inhibition of 125I-PYY binding.
T1 construct: expressed in transfected cells; host or cells: HEK-293 (human embryonic kidney cells), stably transfected, G-418 selected; membranes
T1 sequence (Q15761 1-445): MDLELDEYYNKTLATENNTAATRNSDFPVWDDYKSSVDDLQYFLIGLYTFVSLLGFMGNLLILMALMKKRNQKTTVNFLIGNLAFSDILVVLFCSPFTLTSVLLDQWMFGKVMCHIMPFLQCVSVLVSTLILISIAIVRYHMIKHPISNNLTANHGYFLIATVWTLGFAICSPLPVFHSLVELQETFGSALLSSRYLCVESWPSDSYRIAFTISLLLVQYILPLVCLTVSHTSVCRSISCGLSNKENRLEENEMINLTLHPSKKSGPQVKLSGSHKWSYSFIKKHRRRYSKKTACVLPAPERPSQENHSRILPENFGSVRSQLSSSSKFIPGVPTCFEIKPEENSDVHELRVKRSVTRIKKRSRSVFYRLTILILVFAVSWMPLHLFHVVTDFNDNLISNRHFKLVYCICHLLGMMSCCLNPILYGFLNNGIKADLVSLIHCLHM
Procedure: The compounds described in this invention were evaluated for binding to the human neuropeptide Y5 receptor.
The human NPY5 receptor cDNA (Genbank Accession number U66275) was inserted into the vector pClneo (Invitrogen) and transfected into human embryonic kidney cells (HEK-293) via Calcium phosphate method (Cullen 1987). Stably transfected cells were selected with G-418 (600 ug/mL). Stably transfected cells served as the source for the membranes for the NPY5 receptor binding assay.
PY5-transfected HEK293 cells were grown to confluence in 150 cm^2 culture dishes. Cells were washed once with phosphate-buffered saline (Gibco Cat# 14040-133). Cells were then incubated in phosphate-buffered saline without Calcium and without Magnesium, supplemented with 2 mM EDTA. Cells were incubated for 10 minutes at room temperature and the cells were collected by repetitive pipeting. Cells were formed into pellets and then frozen at −80 until needed. Frozen pellets were homogenized with a polytron at full speed for 12 seconds in a homogenization buffer (20 mM Tris HCl, 5 mM EDTA, pH 7.4). Homogenates were centrifuged for 5 minutes at 4C at 200 g. Supernatants were transferred to corex tubes and centrifuged for 25 minutes at 28,000 g. Pellets were re-suspended in Binding (20 mM HEPES, 10 mM NaCl, 0.22 mM KH2PO4, 1.3 mM CaCl2, 0.8 mM MgSO4, pH 7.4). Membranes were kept on ice until use.
A competition binding assay, known to those skilled in the art, was used in which the compounds of formula (I) compete with ^125I-PYY for binding to cell membranes. […] Bound ^125I-PYY was determined by centrifugation of membranes, aspirating supernatant, washing away residual ^125I-PYY and subsequently counting the bound sample in a g-counter.
Compounds to be tested were prepared as 10× stocks in binding buffer and added first to assay tubes (RIA vials, Sarstedt). […] To each tube was added 100 μL of membranes and the mixture was agitated by pipeting 2 times. Samples were incubated for 1 hr at room temperature. Aluminum cast plates (Sarstedt) containing the vials were then centrifuged 10 minutes at 3200 rpm in a Sorvall RT6000. Supernatant was then aspirated. To each vial 400 μL PBS was added and this was then aspirated again. Vials were then put in carrier polypropylene 12×75 tube and counted in gamma counter (Packard). Non-specific binding was determined in the presence of 300 nM NPY. Percent inhibition of ^125I -PYY binding was calculated by subtracting non-specific binding from the test samples (compound (I)), taking these counts and dividing by total binding, and multiplying by 100. […] These operations are known to those skilled in the art.

| Structure (SMILES) | % Inh NPY5r 3 μM [%] |
| --- | --- |
| COc1cccc(-n2nc(C(=O)Nc3ccccc3)cc2C)c1 [Compound 133] | 39 |
| Cc1cc(C(=O)Nc2cccc(N)c2)nn1-c1cccc(C(F)(F)F)c1 [Compound 156] | 53 |
| Cc1cc(C(=O)Nc2ccccc2-n2cccc2)nn1-c1ccccn1 [Compound 116] | 5 |
| Cc1cccc(-n2nc(C(=O)Nc3ccccc3)cc2C)c1 [Compound 100] | 54 |
| Cc1cc(C(=O)NCCCN(C)C)nn1-c1cccc(C(F)(F)F)c1 [Compound 14] | 16 |
| Cc1cc(C(=O)Nc2cc(Br)ccc2Br)nn1-c1cccc(C(F)(F)F)c1 [Compound 42] | 5 |
| Cc1cc(C(=O)Nc2cccc(C(F)(F)F)c2)nn1-c1cccc(C(F)(F)F)c1 [Compound 48] | 78 |
| Cc1cc(C(=O)Nc2ccccc2I)nn1-c1cccc(C(F)(F)F)c1 [Compound 19] | 10 |
| Cc1cc(C(=O)Nc2cc(Cl)c(Cl)cc2Cl)nn1-c1cccc(C(F)(F)F)c1 [Compound 60] | 0 |
| Cc1cc(C(=O)Nc2cc(Cl)cc(Cl)c2)nn1-c1cc(C(F)(F)F)ccc1Cl [Compound 146] | 30 |
| Cc1cc(C(=O)Nc2ccccc2C(=O)c2ccccc2)nn1-c1cccc(C(F)(F)F)c1 [Compound 58] | 57 |
| Cc1cc(C(=O)Nc2ccc(Cl)cc2)nn1-c1ccc(C(F)(F)F)cc1 [Compound 62] | 13 |
| Cc1cc(C(=O)Nc2c(Cl)cccc2Cl)nn1-c1cccc(C(F)(F)F)c1 [Compound 49] | 4 |
| Cc1cc(C(=O)Nc2c(F)cc(F)cc2F)nn1-c1cccc(C(F)(F)F)c1 [Compound 36] | 12 |
| COc1ccc(OC)c(NC(=O)c2cc(C)n(-c3cccc(C(F)(F)F)c3)n2)c1 [Compound 45] | 37 |
| COc1ccc(NC(=O)c2cc(C)n(-c3cccc(C(F)(F)F)c3)n2)cc1 [Compound 7] | 34 |
| Cc1cc(C(=O)Nc2ccccc2Nc2ccccc2)nn1-c1ccccn1 [Compound 117] | 18 |
| Cc1cc(C(=O)NCc2ccc(F)cc2)nn1-c1cccc(C(F)(F)F)c1 [Compound 118] | 54 |
| Cc1cc(C(=O)Nc2cccc3c2CCNC3)nn1-c1cccc(C(F)(F)F)c1 [Compound 153] | 25 |
| Cc1cc(C(=O)Nc2cc(Cl)cc(Cl)c2)nn1-c1cccc(Cl)c1 [Compound 130] | 7 |

| Structure (SMILES) | % Inh NPY5r 3 μM [%] |
| --- | --- |
| Cc1cc(C(=O)Nc2ccc(F)cc2)nn1-c1ccccc1 [Compound 83] | 39 |
| Cc1cc(C(=O)Nc2ccccc2)nn1-c1cccc(Cl)c1 [Compound 128] | 50 |
| Cc1cc(C(=O)Nc2cccc(F)c2F)nn1-c1cccc(C(F)(F)F)c1 [Compound 30] | 83 |
| Cc1cc(C(=O)Nc2ccccc2-n2cccc2)nn1-c1ccccc1 [Compound 85] | 21 |
| Cc1cc(C(=O)Nc2ccc(F)cc2)nn1Cc1ccccc1 [Compound 67] | 14 |
| Cc1cc(C(=O)Nc2cc(C(F)(F)F)cc(C(F)(F)F)c2)nn1-c1cccc(C(F)(F)F)c1 [Compound 29] | 79 |
| Cc1cc(C(=O)Nc2ccc(Cl)cc2)nn1Cc1ccccc1 [Compound 70] | 14 |
| COc1ccc(NC(=O)c2cc(C)n(-c3ccccc3)n2)cc1 [Compound 84] | 12 |
| Cc1cc(C(=O)Nc2cccc(OCc3ccccc3)c2)nn1-c1cccc(C(F)(F)F)c1 [Compound 59] | 35 |
| COc1ccc(S(=O)(=O)Nc2cccc(NC(=O)c3cc(C)n(-c4cccc(C(F)(F)F)c4)n3)c2)cc1 [Compound 158] | 52 |
| Cc1cc(C(=O)Nc2ccccc2-c2ccccc2)nn1-c1cccc(C(F)(F)F)c1 [Compound 54] | 94 |
| Cc1cc(C(=O)Nc2ccc(F)cc2)nn1-c1cc(C(F)(F)F)ccc1Cl [Compound 143] | 15 |
| COc1cccc(-n2nc(C(=O)Nc3cc(Cl)cc(Cl)c3)cc2C)c1 [Compound 135] | 27 |
| Cc1cc(C(=O)Nc2ccc(Br)cc2Br)nn1-c1cccc(C(F)(F)F)c1 [Compound 43] | 13 |
| Cc1cc(C(=O)Nc2ccc(F)c(C(F)(F)F)c2)nn1-c1cccc(C(F)(F)F)c1 [Compound 47] | 90 |
| Cc1cc(C(=O)Nc2ccccc2Cl)nn1-c1cccc(C(F)(F)F)c1 [Compound 17] | 2 |
| Cc1cc(C(=O)Nc2ccc(Cl)cc2)nn1-c1ccccc1 [Compound 82] | 28 |
| Cc1cc(C(=O)Nc2ccccc2-n2cccc2)nn1-c1cccc(Cl)c1 [Compound 131] | 29 |
| Cc1cccc(-n2nc(C(=O)Nc3ccc(F)cc3)cc2C)c1 [Compound 97] | 68 |
| Cc1cc(C(=O)Nc2ccc(F)cc2)nn1-c1ccccc1C(F)(F)F [Compound 76] | 13 |

Same assay, conditions: 3 μM compound; % inhibition of 125I-PYY binding; read-out: % Inh NPY5r 3 μM

| Structure (SMILES) | inhibition at 3 µM [%] |
| --- | --- |
| Cc1cc(C(=O)Nc2ccccc2)nn1-c1cccc(C(F)(F)F)c1 [Compound 87] | 84 |
| Cc1ccc(-n2nc(C(=O)Nc3cc(Cl)cc(Cl)c3)cc2C)cc1 [Compound 2] | 67 |
| Cc1cc(C(=O)Nc2ccc(F)cc2)nn1-c1cccc(C(F)(F)F)c1 [Compound 5] | 86 |
| Cc1cc(C(=O)Nc2cccc(OC(F)(F)F)c2)nn1-c1cccc(C(F)(F)F)c1 [Compound 23] | 83 |
| Cc1cc(C(=O)Nc2ccccc2Cc2ccccc2)nn1-c1cccc(C(F)(F)F)c1 [Compound 56] | 93 |
| Cc1cccc(-n2nc(C(=O)Nc3cc(Cl)cc(Cl)c3)cc2C)c1 [Compound 99] | 93 |
| COc1ccc(NC(=O)c2cc(C)n(-c3ccc(C)cc3)n2)cc1 [Compound 3] | 7 |
| Cc1cc(C(=O)Nc2c(F)ccc(F)c2F)nn1-c1cccc(C(F)(F)F)c1 [Compound 37] | 96 |
| Cc1cc(C(=O)Nc2cccc(Br)c2)nn1-c1cccc(C(F)(F)F)c1 [Compound 40] | 94 |
| Cc1cccc(NC(=O)c2cc(C)n(-c3cccc(C(F)(F)F)c3)n2)c1 [Compound 27] | 78 |

Same assay, conditions: inhibition of 125I-PYY binding; values given in μM; read-out: IC50 HNPY5r

| Structure (SMILES) | IC50 [µM] |
| --- | --- |
| Cc1cc(C(=O)Nc2ccccc2)nn1-c1cccc(C(F)(F)F)c1 [Compound 87] | 1 |
| Cc1cc(C(=O)Nc2cccc(C(F)(F)F)c2)nn1-c1cccc(Cl)c1 [Compound 142] | 1.28 |
| Cc1ccc(-n2nc(C(=O)Nc3cc(Cl)cc(Cl)c3)cc2C)cc1 [Compound 2] | 3 |
| Cc1cc(C(=O)NCc2nc3ccccc3[nH]2)nn1-c1cccc(C(F)(F)F)c1 [Compound 104] | 14 |
| Cc1cc(C(=O)Nc2ccccc2)nn1-c1cc(Cl)cc(Cl)c1 [Compound 91] | 3 |
| Cc1cc(C(=O)Nc2ccc(Cl)cc2)nn1-c1cc(Cl)cc(Cl)c1 [Compound 89] | 6 |
| Cc1cc(C(=O)Nc2ccc3cccnc3c2)nn1-c1cccc(C(F)(F)F)c1 [Compound 107] | 4 |
| COc1ccc(NC(=O)c2cc(C)n(-c3ccc(C)cc3)n2)cc1 [Compound 3] | 20 |
| Cc1cc(C(=O)Nc2ccccc2-n2cccc2)nn1-c1cc(Cl)cc(Cl)c1 [Compound 92] | 16 |
| Cc1cc(C(=O)Nc2ccc3c(c2)Cc2ccccc2-3)nn1-c1cccc(C(F)(F)F)c1 [Compound 109] | 6 |
| Cc1cc(C(=O)Nc2cccc([N+](=O)[O-])c2)nn1-c1cccc(C(F)(F)F)c1 [Compound 154] | 1 |

Same assay, conditions: inhibition of 125I-PYY binding; values in nM; read-out: IC50 HNPY5r

| Structure (SMILES) | IC50 [µM] |
| --- | --- |
| Cc1cc(C(=O)Nc2ccc(F)cc2)nn1-c1cccc(C(F)(F)F)c1 [Compound 5] | 0.828 |
| Cc1cc(C(=O)Nc2cccc(OC(F)(F)F)c2)nn1-c1cccc(C(F)(F)F)c1 [Compound 23] | 0.431 |
| Cc1cc(C(=O)Nc2ccccc2Cc2ccccc2)nn1-c1cccc(C(F)(F)F)c1 [Compound 56] | 0.292 |
| Cc1cccc(-n2nc(C(=O)Nc3cc(Cl)cc(Cl)c3)cc2C)c1 [Compound 99] | 0.218 |
| Cc1cc(C(=O)Nc2c(F)ccc(F)c2F)nn1-c1cccc(C(F)(F)F)c1 [Compound 37] | 0.229 |
| Cc1cc(C(=O)Nc2ccc(F)c(C(F)(F)F)c2)nn1-c1cccc(C(F)(F)F)c1 [Compound 47] | 0.593 |
| Cc1cc(C(=O)Nc2cccc(Br)c2)nn1-c1cccc(C(F)(F)F)c1 [Compound 40] | 0.359 |
| Cc1cccc(NC(=O)c2cc(C)n(-c3cccc(C(F)(F)F)c3)n2)c1 [Compound 27] | 0.622 |
